Consider two compounds from patent US20260191817A1, “FIBROBLAST MODULATORS IN STROMA-RICH TUMORS” (UNIVERSITEIT GENT, priority 2022, published 2026).

Test [1] concerns human invasive MCF-7/6 mammary carcinoma cells. The experiment in a line: Chick heart invasion (CHI) assay with MCF-7/6 aggregates. In kind it is cell-based. The note with it: MCF7/6, 192 h, lowest concentration at which an anti-invasive effect (histological grade I or II) was observed, 8 days, read-out: Lowest active concentration. As for the experimental part:
Chick heart invasion assays were performed as described earlier (Bracke et al. 2014). Precultured heart fragments of 9-day-old chicken embryos were confronted with MCF-7/6 aggregates on top of a semi-solid agar at 37° C. overnight, after which the confronting pairs were cultured in suspension for 8 days at 37° C., 10% CO2 in presence or absence of a test compound (in duplo). This procedure can also be performed with aggregates of 4T1-Luc cells, for which the suspension culture of the confronting pairs is performed for 3.5 days. All compounds were evaluated at 1 μM and 100 nM; depending on the outcome higher or lower concentrations were subsequently evaluated. Upon fixation in Bouin-Hollande, the cultures were dehydrated and embedded in paraffin. Sections of the confrontation cultures were stained with hematoxylin-eosin are blinded and scored by a trained person (Bracke et al., 2014).
In the chick heart invasion assay cancer cells are confronted with a fragment of normal tissue, so as not to neglect the contribution of the host tissue in the micro-ecosystem that governs tumor behavior. As such, precultured heart tissue fragments (PHFs), dissected from 9-day-old chicken embryos, may be confronted with aggregates of human invasive MCF-7/6 mammary carcinoma cells or other cells in the presence of a certain concentration of a test compound. After eight days for MCF-7/6, or another period depending on the cell type, the interaction between the cancer cells and the PHF is evaluated histologically and classified along a 5-grades subjective scale (Bracke et al. 2014). Grades III and IV are typical for invasion, while grades 0, I and II correspond to absence of invasion. Compounds that inhibit invasion of confronting cancer cells i.e. from III/IV to 0/I/II, are determined as anti-invasive. Possible alternative assays generally known in the art are the type I collagen invasion assay, wound healing assay and the matrigel invasion assay.
The chick heart invasion (CHI) assay is a phenotypic assay that confronts precultured heart tissue fragments (PHFs, ‘normal tissue’), obtained from 9-day-old chicken embryos, with aggregates of human invasive MCF-7/6 mammary carcinoma cells (Bracke et al. 2014). In the control situation, the MCF-7/6 cells encircle, invade and destroy the PHF over an 8-day period. Invasion in this assay is defined as the progressive occupation and destruction of the PHF by the MCF-7/6 cells. Three-dimensional reconstruction of this interaction is obtained by microscopic analysis of all consecutive histological sections of the culture. The read-out is an invasion score according to a 5-grades histological scale.
The CHI closely reproduces the temporal, spatial and histological invasion patterns in man. The co-culture set-up probes for effects on both tumor cells and host tissue, and thus interrogates potential pharmacological targets in either interaction partner. Its use of histological evaluation allows discerning anti-invasive action from cytotoxicity or other effects.
We have submitted flavones B1-B4, flavanones B5-B8 and the intermediate 2′-hydroxychalcones A9, All and A12 to the chick heart invasion assay using MCF-7/6 aggregates. All compounds were evaluated at 1 μM and 100 nM; depending on the outcome higher or lower concentrations were subsequently evaluated. […] This table also includes CHI data on chalcones A1, A2 and A5.

Test [2] concerns 4T1 primary tumors and target organs for metastasis. The experiment in a line: 4T1-based intraductal model: histology and immunohistological stainings. Particulars: for CD163 staining (tumor-associated macrophages) / CD11b staining (amounts of myeloid cells) / FAP-α staining / Ly6G staining: primary tumor tissue. In kind it is in vivo, BALB/c mice. As for the experimental part:
Isolated tissue of primary tumors, axillary lymph nodes, lungs and livers was fixed in buffered 3.5% formaldehyde for 24 h at room temperature (RT) and embedded in paraffin wax. Sections of 5 μm were deparaffinized, hydrated and stained with hematoxylin and eosin (H&E). To allow analysis, sections were dehydrated and mounted.
For Masson's trichrome staining, 3-5 μm thick sections were deparaffinized, hydrated and incubated ON in Bouin's solution to improve staining quality. The following day, slides were washed in distilled H2O (dH2O) and subsequently submerged 3 times in Biebrich scarlet-acid fuchsin solution, washed again in dH2O and incubated for 20 min in phosphomolybdic-phosphotungstic acid solution. Following the incubation in phosphomolybdic-phosphotungstic acid solution, slides were not rinsed, but immediately incubated in aniline blue solution for 8 min. After a final washing step with dH2O, slides were incubated in 1% acetic acid solution for 8 min. Sections were then quickly dehydrated through 94% ethyl alcohol, absolute alcohol to remove Biebrich scarlet-acid fuchsin staining and xylene to clear the slide before mounting with Tissue-Tek glass mounting medium. The staining visualizes collagen in blue, nuclei in dark red, cytoplasm in red/pink. Quantification of positive staining was established using color deconvolution (for Masson's trichrome staining) followed by automatic counting in ImageJ.
For immunohistochemical staining, antigen retrieval was performed on 3-5 μm thick deparaffinized sections with citrate buffer (10 mM tri-sodium citrate (Santa Cruz Biotechnology, Heidelberg, Germany) for α-SMA, CD11 b, Ly6G, and CD163), pH 6 or with Tris-EDTA buffer [pH 9, 10 mM Tris, 1 mM EDTA (Thermo Fisher Scientific) for PDPN and FAP-α) at 95° C. for 30 min using a pressurized Decloaking Chamber NxGen (Biocare Medical, CA, USA). The slides were cooled down to RT for 30 min and subsequently incubated on an orbital shaker at 20 rpm in a closed microscope box with tris-buffered saline (TBS, Biocare Medical)-wetted tissue paper for all blocking, rinsing (between every incubation step with TBS, 3 times for 2 min at RT) and staining steps. To block endogenous peroxidase activity, slides were first treated with 3% H2O2 in methanol for 10 min. To block non-specific binding sites, the slides were subsequently treated with serum-free protein block (Dako, Heverlee, Belgium) for 10 min.
The slides were then stained with primary antibodies diluted in Antibody Diluent (Dako) for 1 h at RT followed by incubation with secondary antibody for 30 min at RT. The used primary antibodies and dilutions were: anti-α-SMA (1:2000, clone EPR5368, Abcam, Cambridge, UK), anti-PDPN (1:100, clone PMab-1, Abcam), anti-FAP-α (1:100, polyclonal, Abcam), anti-CD11b (1:4000, clone EPR1344, Abcam), anti-Ly6G (1:1000, clone 1A8, Biolegend, CA, USA), anti-CD163 (1:500, clone EPR19518, Abcam). The used secondary antibodies were Rat-on-Mouse HRP-Polymer (Biocare Medical) for PDPN and Ly6G, and ready to-use Dako EnVision+ Rabbit for α-SMA, FAP-α, CD11b, and CD163. For visualization of HRP-positive staining, slides were treated with a 3,3′-diaminobenzidine (DAB)-containing buffer (Dako) for 10 min at RT. Counterstaining with hematoxylin was applied for 5 min at RT, followed by dehydration and mounting of the slides with Tissue-Tek glass mounting medium. Quantification of positive staining was established using color deconvolution (for DAB and hematoxylin counterstaining) followed by automatic counting in ImageJ.

Setting [3] is: compared to DMSO treatment, data not shown.
The mark [4] stands for this setting: primary tumor, compared to DMSO.
The mark [5] stands for this setting: primary tumors, compared to DMSO.

On to `COc1cc(C(=O)/C=C/c2ccc(F)cc2)cc(OC)c1OC` [Compound A1, 3-(4-Fluorophenyl)-1-(3,4,5-trimethoxyphenyl)prop2-en-1-one], for which the minimal effective concentration in test [1] is 0.01 µM. The “size of lung and liver metastases (H&E)” value in test [2] (setting [3]) is listed as “Smaller”. For the same compound, in test [2] (liver tissue, compared to DMSO), the “Masson's trichrome staining (collagen deposition)” value (“Masson's trichrome staining” below) was “significant reduction”, the PDPN staining entry is “significantly decreased” and the “α-SMA staining (CAFs)” value is “significant reduction”. Moreover, in test [2], the “CD163 staining (tumor-associated macrophages)” value is given as “significantly decreased”. Also, in test [2] (compared to DMSO), the “CD11b staining (amounts of myeloid cells)” value is given as “significantly decreased”, the FAP-α staining entry is reported as “significantly decreased” and the Ly6G staining result was “reduction”. Besides, the “Masson's trichrome staining” value in test [2] (setting [4]) is “significantly decreased”. Also, the PDPN staining result in test [2] (primary tumors, P<0.001) is recorded as “significantly decreased”. Besides, the “α-SMA staining (amount of CAFs)” value in test [2] (setting [5]) was “significantly decreased”.
Regarding `COc1cc2oc(-c3ccc(F)cc3)cc(=O)c2c(OC)c1OC` [Compound B1, 2-(4-Fluorophenyl)-5,6,7-trimethoxy-4H-chromen-4-one], the minimal effective concentration in test [1] amounted to 0.01 µM. In test [2] (setting [3]), the “size of axillary lymph node metastases (H&E)” value is “smaller”. Besides, in test [2] (liver tissue, compared to DMSO), the “Masson's trichrome staining” value is listed as “significant reduction”, the PDPN staining entry is listed as “significantly decreased” and the “α-SMA staining (CAFs)” value is “significant reduction”. Also, the “CD163 staining (tumor-associated macrophages)” value in test [2] is “significantly decreased”. Also, in test [2] (compared to DMSO), the “CD11b staining (amounts of myeloid cells)” value is “significantly decreased”, the FAP-α staining result is “significantly decreased” and the Ly6G staining result is listed as “reduction”. For the same compound, in test [2] (setting [4]), the “Masson's trichrome staining” value is reported as “significantly decreased”. In test [2] (primary tumors, P<0.001), the PDPN staining result is on record as “significantly decreased”. Moreover, the “α-SMA staining (amount of CAFs)” value in test [2] (setting [5]) is listed as “significantly decreased”.
